We go through 29 molecules from ChEMBL document CHEMBL1148813, “Discovery and characterization of novel, potent, non-peptide parathyroid hormone-1 receptor antagonists” (J Med Chem, 2007).

Usually Ki stands for a measure of affinity in units of concentration, obtained from inhibition or displacement. The term inhibition denotes how much of the control response was suppressed. Usually pKb stands for the negative decadic logarithm of the Kb, by convention in mol/L.

For experiment [1], the target named is T1, Parathyroid hormone/parathyroid hormone-related peptide receptor (Homo sapiens, UniProt Q03431).
T1 sequence (Q03431 whole entry): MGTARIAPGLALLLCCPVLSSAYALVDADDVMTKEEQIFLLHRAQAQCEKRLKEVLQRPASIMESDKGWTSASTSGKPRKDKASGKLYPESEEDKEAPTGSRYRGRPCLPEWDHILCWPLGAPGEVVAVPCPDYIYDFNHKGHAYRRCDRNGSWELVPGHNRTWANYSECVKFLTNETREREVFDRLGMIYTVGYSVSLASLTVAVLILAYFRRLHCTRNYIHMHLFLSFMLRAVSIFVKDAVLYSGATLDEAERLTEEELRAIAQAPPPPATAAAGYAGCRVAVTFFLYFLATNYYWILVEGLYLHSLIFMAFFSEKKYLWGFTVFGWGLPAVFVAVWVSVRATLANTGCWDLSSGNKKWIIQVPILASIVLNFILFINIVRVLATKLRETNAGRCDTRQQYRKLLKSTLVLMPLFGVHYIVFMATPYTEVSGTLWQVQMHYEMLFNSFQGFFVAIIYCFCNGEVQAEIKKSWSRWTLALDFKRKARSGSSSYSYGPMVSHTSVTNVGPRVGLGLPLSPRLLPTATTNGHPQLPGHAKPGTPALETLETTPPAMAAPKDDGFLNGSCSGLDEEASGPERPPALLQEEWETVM
Nature of the experiment: Displacement of [125I]-[Nle,8,18 Tyr34]-hPTH(1-34) from human recombinant PTH1R expressed in HEK293 cells. The class given is cell-based. (In general: Displacement assays read how much labelled ligand stays bound in the presence of the test substance.)

In experiment [2] the target is T2, Parathyroid hormone/parathyroid hormone-related peptide receptor (Homo sapiens) (UniProt Q03431).
T2 sequence (whole entry): T1 sequence (Q03431 whole entry)
Nature of the experiment: Displacement of [125I]-[Nle,8,18 Tyr34]-hPTH(1-34) from human recombinant PTH1R expressed in HEK293 cells at 1 uM. The class given is cell-based.

The target of experiment [3] is T2, Parathyroid hormone/parathyroid hormone-related peptide receptor (Homo sapiens). The experiment is described as follows: Displacement of [125I]-[Nle,8,18 Tyr34]-hPTH(1-34) from human recombinant PTH1R expressed in HEK293 cells at 10 uM. The class given is cell-based.
Experiment [4] addresses T1, Parathyroid hormone/parathyroid hormone-related peptide receptor. Nature of the experiment: Antagonist activity at human wild type PTH1 receptor expressed in SaOS2 cells assessed as inhibition of PTHrP (1-34)-stimulated cAMP production at 3 uM. The class given is functional, cell-based, SAOS-2. The settings on record: read-out: pA2 (converted).
Experiment [5] deals with Parathyroid hormone 2 receptor (Homo sapiens) (UniProt P49190). Nature of the experiment: Antagonist activity at human recombinant PTH2 receptor expressed in CHOK1 cells assessed as inhibition of TIP (1-39)-stimulated cAMP production at 10 uM. The settings on record: read-out: pA2 (converted). A general note: Cyclic AMP is a second messenger, typically raised through Gs and lowered through Gi signalling.
Chain of Parathyroid hormone 2 receptor (Homo sapiens) (P49190 whole entry, looked up): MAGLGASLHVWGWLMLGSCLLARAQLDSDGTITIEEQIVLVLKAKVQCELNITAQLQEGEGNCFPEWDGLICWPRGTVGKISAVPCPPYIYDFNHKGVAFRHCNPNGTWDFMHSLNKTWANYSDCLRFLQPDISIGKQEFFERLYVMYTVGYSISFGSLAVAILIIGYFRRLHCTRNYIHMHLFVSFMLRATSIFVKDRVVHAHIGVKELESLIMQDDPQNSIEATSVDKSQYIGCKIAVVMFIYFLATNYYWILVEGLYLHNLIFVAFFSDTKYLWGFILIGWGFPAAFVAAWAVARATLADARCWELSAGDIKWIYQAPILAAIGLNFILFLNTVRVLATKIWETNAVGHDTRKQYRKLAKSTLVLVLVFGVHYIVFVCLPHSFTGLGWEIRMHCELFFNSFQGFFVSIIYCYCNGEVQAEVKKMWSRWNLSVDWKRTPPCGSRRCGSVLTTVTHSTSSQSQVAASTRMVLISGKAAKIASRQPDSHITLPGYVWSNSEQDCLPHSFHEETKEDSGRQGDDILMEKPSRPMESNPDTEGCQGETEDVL

Experiment [6] concerns the target T2, Parathyroid hormone/parathyroid hormone-related peptide receptor (Homo sapiens). Nature of the experiment: Antagonist activity at human wild type PTH1 receptor expressed in SaOS2 cells assessed as inhibition of PTHrP (1-34)-stimulated cAMP production. The experiment is classed as functional, cell-based. The settings on record: SAOS-2.
The target in experiment [7] is T1, Parathyroid hormone/parathyroid hormone-related peptide receptor. The experiment is described as follows: Antagonist activity at human recombinant PTH1 receptor expressed in HEK293 cells assessed as inhibition of PTH(1-34)-stimulated cAMP production. The experiment is classed as functional, cell-based. The settings on record: read-out: pA2 (converted).
The target of experiment [8] is T3, Parathyroid hormone/parathyroid hormone-related peptide receptor (Mus musculus, UniProt P41593).
T3 sequence (P41593 whole entry): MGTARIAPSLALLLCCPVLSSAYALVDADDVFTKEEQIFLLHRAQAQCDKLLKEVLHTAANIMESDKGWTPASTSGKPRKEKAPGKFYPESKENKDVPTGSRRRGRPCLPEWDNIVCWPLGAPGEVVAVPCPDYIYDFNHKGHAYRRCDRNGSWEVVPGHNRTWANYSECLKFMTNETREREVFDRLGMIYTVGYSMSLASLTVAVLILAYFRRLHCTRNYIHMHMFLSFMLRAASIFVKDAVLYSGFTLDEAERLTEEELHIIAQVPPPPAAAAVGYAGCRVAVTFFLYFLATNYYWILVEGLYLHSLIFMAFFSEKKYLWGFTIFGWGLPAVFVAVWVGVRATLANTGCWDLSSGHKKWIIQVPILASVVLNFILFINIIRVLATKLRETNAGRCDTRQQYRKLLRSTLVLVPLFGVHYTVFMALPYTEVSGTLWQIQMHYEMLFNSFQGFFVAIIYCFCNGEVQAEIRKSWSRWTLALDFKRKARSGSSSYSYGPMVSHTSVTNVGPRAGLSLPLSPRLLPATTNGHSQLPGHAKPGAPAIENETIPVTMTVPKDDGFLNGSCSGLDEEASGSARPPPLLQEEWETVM
Nature of the experiment: Antagonist activity at mouse wild type PTH1 receptor expressed in MC3T3E1 cells assessed as inhibition of PTHrP (1-34)-stimulated cAMP production at 3 uM. The experiment is classed as functional, cell-based. The settings on record: read-out: pA2 (converted).

The next experiment is filed under the species Homo sapiens. Nature of the experiment: Selectivity for human recombinant PTH1 receptor over human recombinant PTH2 receptor.

Molecules are shown by their SMILES.

On to `COCCN1N=C(C2CCCCC2)c2ccc(C)cc2N(c2ccc(NCCc3ncc[nH]3)cc2)C1=O`, for which, in [1], the Ki is 83.2 nM.
Turning to `O=C(O)c1ccc(N2C(=O)N(Cc3ccccc3)N=C(C3CCCCC3)c3ccccc32)cc1`, the Ki in experiment [1] is greater than 100000 nM.
Regarding `Cc1ccc2c(c1)N(c1ccc(NC(=N)N)cc1)C(=O)N(Cc1ccccc1)N=C2C1CCCCC1`, in [1], the Ki was 155 nM.
With `Cc1ccc2c(c1)N(c1ccc(NCCc3ncc[nH]3)cc1)C(=O)N(C1CCOCC1)N=C2C1CCCCC1`, the Ki in experiment [1] was 6.61 nM.
Still for that read-out and setting: next, `Cc1ccc2c(c1)N(c1ccc(NCCCc3ncc[nH]3)cc1)C(=O)N(C)N=C2C1CCCCC1`: 20.4 nM.
In the case of `Nc1ccc(N2C(=O)N(Cc3ccccc3)N=C(C3CCCCC3)c3ccccc32)cc1`, the inhibition in experiment [2] came to 39%.
On to `N=C(N)Nc1ccc(N2C(=O)N(Cc3ccccc3)N=C(CC3CCCCC3)c3ccccc32)cc1`, for which, in experiment [1], the Ki was 562 nM.
On to `N=C(N)Nc1ccc(N2C(=O)N(Cc3ccccc3)N=C(CN3CCCCC3)c3ccccc32)cc1`, for which, in experiment [3], the inhibition was determined as 27%.
As to `Cc1ccc2c(c1)N(c1ccc(NCc3ncc[nH]3)cc1)C(=O)N(C)N=C2C1CCCCC1`, the Ki in experiment [1] is 50.1 nM.
The same measure, in the same setting: next, `Cc1ccc2c(c1)N(c1ccc(NCCc3ncc[nH]3)cc1)C(=O)N(C(C)C)N=C2C1CCCCC1`: 3.55 nM; `NCC(=O)Nc1ccc(N2C(=O)N(Cc3ccccc3)N=C(C3CCCCC3)c3ccccc32)cc1`: 676 nM; `Cc1cc2c(cc1NCc1ccccc1)C(C1CCCCC1)=NN(C)C(=O)N2c1ccc(NCCc2ncc[nH]2)cc1`: 1.45 nM.
Regarding `Cc1ccc2c(c1)N(c1ccc(NCCc3ncc[nH]3)cc1)C(=O)N(C1CCc3ccccc3CC1)N=C2C1CCOCC1`, the Ki in experiment [1] is 6.76 nM.
In the case of `Cc1ccc2c(c1)N(c1ccc(NCCc3ncc[nH]3)cc1)C(=O)N(C1CCc3ccccc3CC1)N=C2C1CCCCC1`, in [1], the Ki is 0.912 nM.
`N=C(N)Nc1ccc(N2C(=O)N(Cc3ccccc3)N=C(C3CCCCC3)c3ccccc32)cc1`: the Ki in experiment [1] is 708 nM.
As to `Cc1ccc2c(c1)N(c1ccc(NCCc3ncc[nH]3)cc1)C(=O)N(C)N=C2C1CCCCC1`, the Kb in experiment [4] is 19.5 nM; in experiment [5], 2880 nM; in experiment [7] it was 17 nM; in experiment [8], 513 nM. The pKb in experiment [6] was determined as 7.55. For the same molecule, the Ki in experiment [1] is 13.2 nM. Besides, the Selectivity ratio in the experiment listed under Homo sapiens amounted to 100.
For `Cc1ccc2c(c1)N(c1ccc(NCCc3ncc[nH]3)cc1)C(=O)N(C1COc3ccccc3OC1)N=C2C1CCCCC1`, in [1], the Ki was 8.71 nM.
For the molecule `Cc1cc2c(cc1OCc1ccccc1)C(C1CCCCC1)=NN(C)C(=O)N2c1ccc(NCCc2ncc[nH]2)cc1`, the Ki in experiment [1] is 1.82 nM.
Take `Cc1ccc2c(c1)N(c1ccc(NCCc3ncc[nH]3)cc1)C(=O)N(Cc1ccccc1)N=C2C1CCCCC1`: the Ki in experiment [1] is 3.8 nM.
As for `O=C1N(Cc2ccccc2)N=C(C2CCCCC2)c2ccccc2N1c1ccc(NC2=NCCN2)cc1`, the Ki in [1] is 288 nM.
Consider `N=C(N)Nc1ccc(N2C(=O)N(Cc3ccccc3)N=C(c3ccccc3)c3ccccc32)cc1`, for which the Ki in experiment [1] was 3390 nM.
The same measure, in the same setting: next, `Cc1ccc2c(c1)N(c1ccc(NCCc3ncc[nH]3)cc1)C(=O)N(C)N=C2C1CCOCC1`: 617 nM; `N=C(N)Nc1ccc(CN2C(=O)N(Cc3ccccc3)N=C(C3CCCCC3)c3ccccc32)cc1`: 933 nM.
As for `N=C(N)Nc1cccc(N2C(=O)N(Cc3ccccc3)N=C(C3CCCCC3)c3ccccc32)c1`, the Ki in experiment [1] was 2820 nM.
For the molecule `Cc1ccc2c(c1)N(c1ccc(NC(=O)C(N)C(C)C)cc1)C(=O)N(Cc1ccccc1)N=C2C1CCCCC1` (stereo not given), in experiment [1], the Ki is 112 nM.
As for `CC(C)C1=NN(Cc2ccccc2)C(=O)N(c2ccc(NC(=N)N)cc2)c2ccccc21`, the inhibition in [3] was found to be 43%.
Turning to `Cc1ccc2c(c1)N(c1ccc(NC3=NCCN3)cc1)C(=O)N(Cc1ccccc1)N=C2C1CCCCC1`, the Ki in experiment [1] is 70.8 nM.
Turning to `CC(C)C(N)C(=O)Nc1ccc(N2C(=O)N(Cc3ccccc3)N=C(C3CCCCC3)c3ccccc32)cc1` (stereo not given), the Ki in experiment [1] was 380 nM.
`CCCN1N=C(C2CCCCC2)c2ccc(C)cc2N(c2ccc(NCCc3ncc[nH]3)cc2)C1=O`: in experiment [1], the Ki is 6.76 nM.
